Measured values: patent EP0044212B1, “Herbicidal o-alkylsulfonyloxy- and o-alkylsulfonylamino-benzenesulfonamides” (E.I. DU PONT DE NEMOURS AND COMPANY, priority 1980, dated 1982)

Tested on: Soybeans
Assay: Test G broadleaf herbicidal properties, overall spray
Assay type: in vivo, soybean
Conditions: 0.015 kg/ha, 22 days after treatment
Description: Approximately 12 soybean plants were grown in a 25 cm. diameter plastic pot. In another pot of equal size the following broadleaf plant species were grown: sugarbeets, velvetleaf, Sesbania, Cassia, mustard, morningglory, alfalfa, jimsonweed, and cocklebur. The plant foliage and surrounding soil were treated with the test chemical dissolved in a non-phytotoxic solvent as an overall spray at the rate of 0.015 kg/ha, when the plants were 17 days old. Visual ratings of herbicidal effects were made 22 days after treatment utilizing the rating system described for Test A.

For `CCCS(=O)(=O)Oc1ccccc1S(=O)(=O)NC(=O)Nc1nc(C)nc(OC)n1` [Compound 39, 2-hydroxy-N-[(4-methoxy-6-methyl-1,3,5-triazin-2-yl)aminocarbonyl]benzenesulfonamide, 1-propanesulfonate], the Soybeans response rating was 0.
